Test results: patent publication US7033829B2, “Method to inhibit cell growth using oligonucleotides” (Trustees of Boston University, priority 2000, dated 2006)
Oligonucleotides are written 5' to 3', each unit as a sugar letter and its base; * is a phosphorothioate linkage, no mark a phosphodiester; rarer units and linkages stand in square brackets, end groups in braces. Plain capitals give the bases only. d = 2'-deoxy (DNA); {P} = phosphate

What was measured:
[1] = tested on: Cloudman S91 mouse melanoma cells; assay: Melanin content of Cloudman S91 melanoma cells; format: cell-based; conditions: for melanogenesis: 100 μM dinucleotides or 40 μM 11mers, 6 days; for melanin content relative to control diluent-treated cells: 10 μM, five days, FIG. 17; for pigment content increase, of control levels: 100 μM, three experiments; for pigment content increase, of control levels / melanin content, of control cells / increase in melanin / reduction of melanogenic activity by removal of the 5′ phosphate: 5 days; for melanin content, of control cells: FIG. 12; for increase in melanin: FIG. 15; for reduction of melanogenic activity by removal of the 5′ phosphate: FIG. 16
Method: The induction of melanogenesis in Cloudman S91 mouse melanoma cells by a five-nucleotide oligomer CATAC (SEQ ID NO: 6) and a nine-nucleotide oligomer, GAGTATGAG (SEQ ID NO: 1) was examined. Duplicates of Cloudman S91 murine melanoma cells were incubated with either 100 μM oligo or an equal volume of diluent (H2O) for 5 days. The cells were then collected, counted, and an equal number of cells were pelleted for melanin analysis. […] Variations of this oligonucleotide were evaluated: a scrambled 9-mer (TAGGAGGAT; SEQ ID NO: 2) and two truncated versions, a 7-mer (AGTATGA; SEQ ID NO: 3) and second 5-mer (GTATG; SEQ ID NO: 4). […] The truncated versions (SEQ ID NOs: 3 and 4) were also active, inducing 640% and 670% increases, respectively.
Cultures of Cloudman S91 murine melanoma cells were treated for 5 days with SEQ ID NO: 1, SEQ ID NO: 6, pTpT as a positive control, or an equal volume of diluent as a negative control. […] SEQ ID NO: 6 produced a slight increase in melanin, to 165+/−77% of control levels. SEQ ID NO: 1 stimulated melanin content to an average of 600+/−260% of control levels.
pTpT, shown previously to stimulate pigmentation in these cells, was used as a reference treatment, and diluent alone was used as a negative control. After five days of treatment with the oligonucleotides, the cells were collected, counted, and an equal number of cells were pelleted for melanin analysis. […] SEQ ID NO: 5, representing the telomere over-hang sequence, also at 10 μM, increased the melanin level to 10 times that of control cells.
S91 cells were cultured in the presence of diluent alone, pTpT p9mer (SEQ ID NO: 1), p7mer (AGTATGA; SEQ ID NO: 7) or p5mer #2 (SEQ ID NO: 4). […] Both SEQ ID NOS: 4 and 7 stimulated a 7–8 fold increase in melanin.
S91 cells were cultured for 5 days in the presence of the thymidine dinucleotides or SEQ ID NO: 1 with or without a 5′ phosphate or diluent alone as a negative control.
Cultures of S91 mouse melanoma cells (100,000 cells/38 cm^2) were treated with 100 μM pTpT or phosphorothioate pTpT (pTspT) (FIG. 22) or 40 μM 11mer-1 or the phosphorothioate 11mer-1 (11mer-1-S) (FIG. 23) for 6 days and were then collected, counted and assayed for melanin content.
Duplicate cultures of S91 cells (100,000 cells/39 cm^2) were either sham-irradiated or irradiated with 5 mJ/cm^2 solar-simulated light from a 1 kW xenon arc solar-simulator (XMN 1000-21, Optical Radiation, Azuza, Calif.) metered at […] using a research radiometer (model IL1700A, International Light, Newburyport, Mass.). Two sham-irradiated plates were then supplemented with 100 μM pTspT and two irradiated cultures were similarly treated with pTspT. After one week, cells were collected, counted and analyzed for melanin content by dissolving the cell pellets in 1 N NaOH and measuring the optical density at […]. […] However, this response was blocked by the addition of pTspT (FIG. 24). In addition, the constitutive pigmentation of these cells was reduced by the pTspT in the sham-irradiated cultures, similar to the data presented in FIGS. 22 and 23.

[2] = tested on: Human squamous carcinoma cell line SCC12F cells; assay: Cell growth / cell yield of SCC12F cells (Coulter counter); format: cell-based; conditions: for reduction of cell number: after 2 days, FIG. 14
Method: Human squamous carcinoma cell line SCC12F cells were maintained in primary keratinocyte medium (300 ml DME, 100 ml F-12 nutrient supplement, 50 ml 10× adenine, 50 ml fetal bovine serum, 5 ml penicillin/streptomycin stock, and 0.5 ml of 10 μg/ml epidermal growth factor and hydrocortisone to final concentration of 1.4 μg/ml) and dosed with either water (diluent), 100 μM pTpT (T2, Midland Certified Reagent Company, Midland, Tex.) or 100 μM pdApdA (A2). Cells were harvested before dosing (day 0), and 1, 3, 4, and 5 days after dosage, and were counted by Coulter™ counter. After harvesting, the cells were processed for total RNA isolation and were analyzed by Northern blot. Addition of a control deoxyadenine dinucleotide (pdApdA), a compound very similar to pTpT but not readily dimerized by UV irradiation, and therefore rarely excised during the course of UV-induced DNA repair, has no effect.
In a second experiment, SCC12F cells were cultured as described above. Two or three days after seeding, the preconfluent cultures were given fresh medium supplemented with either 100 μM T2 or diluent as a control. Cells were collected daily by trypsinization and counted by Coulter™ counter. The cell yield in cultures treated with T2 was reduced by […] compared to that of paired control cultures after five days (FIG. 2). This corresponds to 2.3 population doublings in this time for control cells, compared with 1 doubling for T2-treated cells.
pTpT was previously found to inhibit cell cycle progression, at least in part through activation of p53 and subsequent upregulation of the cyclin dependent kinase inhibitor p21. Cultures of the human keratinocyte line SCC12F were treated with pTpT, SEQ ID NO: 1, SEQ ID NO: 6 or diluent alone as a negative control, collected and counted 48 hours later and processed for northern blot analysis of p21 mRNA expression. […] Thus, the sequences of the present invention activate p53 and inhibit cell proliferation similar to the effect of pTpT.
Exposure of keratinocytes to UVB irradiation affects the expression of genes involved in cell cycle arrest, DNA repair and cytokine production. Single-stranded oligonucleotides sharing sequence homology with the telomere 3′ overhang, when introduced into cells, mimic these UV effects. To identify other genes that may be similarly modulated, cells of keratinocyte origin (SCC12F; a human epidermal squamous cell carcinoma line provided by Dr. James Rheinwald of Harvard University) were exposed to solar simulated irradiation (SSR) (20 mJ/cm^2, measured at 285±5 nm), to an 11-base oligonucleotide (pGTTAGGGTTAG; SEQ ID NO:5) homologous to the telomere overhang (T-oligo), or to a complementary sequence as control [pCTAACCCTAAC; (SEQ ID NO:9) control oligonucleotide]. […] These are mitochondrial-transcribed genes whose encoded proteins participate in cellular respiration.

Substance	melanogenesis [1]	melanin content relative to control diluent-treated cells [1]	pigment content increase, of control levels [1]	melanin content, of control cells [1]	increase in melanin [1]	reduction of melanogenic activity by removal of the 5′ phosphate [1]	reduction of cell number [2]	further results
11mer-1-S: phosphorothioate 11mer-1 (dG*dT*dT*dA*dG*dG*dG*dT*dT*dA*dG; further chemistry not fully specified)	did not	–	–	–	–	–	–	constitutive pigmentation ([1]; 100 μM pTspT or 40 μM 11mer-1-S, 6 days or one week): reduced the constitutive pigmentation
pCTAACCCTAAC (DNA, 5' {P}, backbone not given here) [SEQ ID NO: 9, reference compound]	–	did not produce significant change in pigment content	–	–	–	–	–	–
pGAGTATGAG (DNA, 5' {P}, backbone not given here) [SEQ ID NO: 1]	–	–	418%±267%	600+/−260%	a larger increase	60%	approximately 50%	increase in melanin content ([1]; variations of the 9-mer, cells not given): 800%
pGATCGATCGAT (DNA {P}-dGdAdTdCdGdAdTdCdGdAdT) [SEQ ID NO: 10, reference compound]	–	did not produce significant change in pigment content	–	–	–	–	–	–
pGTTAGGGTTAG (DNA {P}-dGdTdTdAdGdGdGdTdTdAdG) [SEQ ID NO: 5]	stimulated melanogenesis	10 times that of control	–	–	–	–	–	cellular proliferation ([2]; Example 27): substantially inhibited cellular proliferation
thymidine dinucleotide [pTpT]	stimulated melanogenesis	3 times that of control	155%±60%	255+/−60%	moderate increase in melanin content	80%	40%	cell yield reduced compared to paired control cultures ([2]; 100 μM, after five days): 75%; cell growth rate ([2]; 100 μM, days 1, 3, 4, 5 after dosage): marked decreases in cell growth rate; population doublings ([2]; 100 μM, five days (control 2.3)): 1
